Laboratory results from PubChem BioAssay AID602437 (Southern Research Specialized Biocontainment Screening …, 2012).
Values joined by “and” are separate entries in the source; they are usually repeats but may differ in a detail not shown here. Identical values can stand only once. Active and inactive are the calls of the source. How the calls were made is not given here.

Key:
[1] = H37Rv growth blockers, purified and synthesized samples, set 8, confirmation (AID 602437); conditions: M. tuberculosis H37Rv growth inhibition, no glycerol; at 100 µM (top of the series)
[2] = test system: M. tuberculosis H37Rv growth inhibition, no glycerol; assay: as above; conditions: for IC50: measured here: IC50 replicates

| SMILES | inhibition [1] | IC50 [2] | IC90 [2] [µM] |
| --- | --- | --- | --- |
| COc1ccc(NC(=O)NCc2ccc(C(=O)N3CCC(c4ccccc4)CC3)cc2)cc1 | 14% (inactive) |  |  |
| CC(=O)c1ccc(NC(=O)c2ccc(CNc3c(N4CCOCC4)c(=O)c3=O)cc2)cc1 |  | 63.7 µM |  |
| Cc1cccc(N2CCN(C(=O)c3ccc(CNc4c(N5CCC(C)CC5)c(=O)c4=O)cc3)CC2)c1C |  | 42.1 µM | 56.9 |
| O=C(NCCc1ccc(Cl)cc1)C1CCC(CNc2c(N3CCCCC3)c(=O)c2=O)CC1 (stereo not given) |  | 17.6 µM |  |
| O=C(c1ccc(CNc2c(N3CCCC3)c(=O)c2=O)cc1)N1CCc2ccccc2C1 |  | 7.79 µM |  |
| O=C(c1ccc(CNc2c(N3CCCC3)c(=O)c2=O)cc1)N1CC=C(c2ccccc2)CC1 |  | 4.52 µM and 4.4 µM |  |
| O=C(CSc1nc2c(c(=O)[nH]1)CN(Cc1ccccc1)CC2)NC1CCCCC1 | -4.57% (inactive) |  |  |
| CC(C)CCNC(=O)CSc1nc2c(c(=O)[nH]1)CCCC2 |  | 4.43 µM | 6.58 |
| COc1ccc(N2CCN(C(=O)c3ccc(CNc4c(N5CCOCC5)c(=O)c4=O)cc3)CC2)cc1 |  | 8.95 µM and 8.65 µM |  |
| O=C(NCc1ccc(C(=O)N2CCC(c3ccccc3)CC2)cc1)NC1CCCCC1 |  | 67.7 µM | 86.4 |
| CCOc1ccc(NC(=O)c2ccc(CNc3c(N4CCCC4)c(=O)c3=O)cc2)cc1 | -0.36% (inactive) |  |  |
| COc1ccc(N2CCN(C(=O)c3ccc(CNc4c(N5CCCC(C)C5)c(=O)c4=O)cc3)CC2)cc1 (stereo not given) |  | 25.4 µM | 41.4 |
| CC1CCCN(C(=O)c2ccc(CNc3c(N4CCCCC4)c(=O)c3=O)cc2)C1 (stereo not given) |  | 5.73 µM |  |
| CC1CCCN(C(=O)C2CCC(CNc3c(N4CCCCC4)c(=O)c3=O)CC2)C1 (stereo not given) |  | 34.9 µM |  |
| CC(C)CCNC(=O)CSc1nc2c(c(=O)[nH]1)CCCCC2 |  | 99.2 µM |  |
| COCCNC(=O)CSc1nc2ccccc2c(=O)[nH]1 | -10.3% (inactive) |  |  |
| CCOC(=O)N1CCC(Nc2c(Nc3cccc(CC)c3)c(=O)c2=O)CC1 |  | 36.5 µM |  |
| O=C(CSc1nc2ccccc2c(=O)[nH]1)NC1CCCCC1 |  | 0.204 µM | < 0.27 |
| CC1CC(C)CN(C(=O)C2CCC(CNc3c(N4CCCCC4)c(=O)c3=O)CC2)C1 (stereo not given) |  | 7.79 µM and 24.7 µM |  |
| O=C(CSc1nc2c(c(=O)[nH]1)CCCC2)NC1CCCCC1 |  | 2.3 µM | 3.45 |
| O=C(c1ccc(CNc2c(N3CCOCC3)c(=O)c2=O)cc1)N1CCN(c2ccccc2)CC1 |  | 3.8 µM |  |
| COC(=O)C(Cc1ccccc1)NC(=O)CSc1nc2ccccc2c(=O)[nH]1 (stereo not given) | 2.32% (inactive) |  |  |

| SMILES | inhibition [1] | IC50 [2] | IC90 [2] [µM] |
| --- | --- | --- | --- |
| CCC(C)NC(=O)CSc1nc2ccccc2c(=O)[nH]1 (stereo not given) |  | 4.95 µM | 7.63 |
| CC1CC(C)CN(C(=O)c2ccc(CNc3c(N4CCCC4)c(=O)c3=O)cc2)C1 (stereo not given) |  | 12.8 µM |  |
| COc1ccc(N2CCN(C(=O)c3ccc(CNC(=O)NCc4ccc(Cl)cc4)cc3)CC2)cc1 | 2.39% (inactive) |  |  |
| O=C(c1ccc(CNc2c(N3CCCC3)c(=O)c2=O)cc1)N1CCN(c2ccccc2)CC1 |  | 70.2 µM |  |
| O=C(NCCc1ccc(Cl)cc1)c1ccc(CNc2c(N3CCOCC3)c(=O)c2=O)cc1 |  | 5.66 µM and 14.4 µM |  |
| O=C(c1ccc(CNc2c(N3CCCC3)c(=O)c2=O)cc1)N1CCC(c2ccccc2)CC1 |  | 76.1 µM |  |
| CCOC(=O)CSc1ncnc2c1cnn2-c1ccccc1 |  | 4.02 µM | 9.98 |
| O=C(c1ccc(CNc2c(N3CCOCC3)c(=O)c2=O)cc1)N1CC=C(c2ccccc2)CC1 |  | 1.71 µM | 8.36 |
| O=C(CSc1nc2c(c(=O)[nH]1)CCC2)NC1CCCCC1 |  | 2.24 µM | 3.23 |
| CC1CCCN(c2c(NCc3ccc(C(=O)N4CC=C(c5ccccc5)CC4)cc3)c(=O)c2=O)C1 (stereo not given) |  | 7.72 µM | 9.7 |
| O=C(c1ccc(CNc2c(N3CCOCC3)c(=O)c2=O)cc1)N1CCC(c2ccccc2)CC1 |  | 3.56 µM |  |
| O=C(NCc1ccc(C(=O)N2CCC(c3ccccc3)CC2)cc1)Nc1ccc(Cl)cc1 |  | 72.2 µM | 92.5 |
| CC(C)CCNC(=O)CSc1nc2ccccc2c(=O)[nH]1 |  | 0.651 µM | 1.01 |
| CC(C)OC(=O)CSc1ncnc2c1cnn2-c1ccccc1 |  | 12 µM |  |
| O=C(C1CCC(CNc2c(N3CCCCC3)c(=O)c2=O)CC1)N1CCCCC1 (stereo not given) |  | 27.5 µM |  |
| Cc1cccc(N2CCN(C(=O)c3ccc(CNc4c(N5CCC(C)CC5)c(=O)c4=O)cc3)CC2C)c1 (stereo not given) |  | 27.7 µM | 46.3 |
| CC1CCN(C(=O)c2ccc(CNc3c(N4CCCC4)c(=O)c3=O)cc2)CC1 |  | 10.1 µM |  |
| O=C(CSc1nc2ccccc2c(=O)[nH]1)NC1CCOCC1 |  | 20.5 µM | 33.8 |
| COC(=O)CSc1ncnc2c1cnn2-c1ccc(C)cc1C |  | 2.78 µM | 3.71 |
| O=C(NCc1ccc(C(=O)N2CCN(c3ccccc3)CC2)cc1)NC1CCCCC1 | 2.51% (inactive) |  |  |
| CCOC(=O)CSc1ncnc2c1cnn2-c1ccc(C)cc1C |  | 2.64 µM | 4.58 |
